{"source": "paper PMC9457659", "about": "“Exploring The Relative Astringency of Tea Catechins and Distinct Astringent Sensation of Catechins and Flavonol Glycosides via an In Vitro Assay Composed of Artificial Oil Bodies” (Molecules, 2022)", "data": [{"target": "T1, caleosin–histatin 3 fusion protein (Homo sapiens, UniProt P15516)", "T1 construct": "gene HTN3; sesame caleosin lacking residues 101-115 fused with histatin 3; synthetic histatin DNA; E. coli BL21(DE3), insoluble pellet; about 29 kDa; with Caleosin (Peroxygenase)", "T1 sequence (P15516 20-51)": "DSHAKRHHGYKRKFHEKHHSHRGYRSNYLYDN", "T1 sequence (Q9SQ57 with tags, fused parts or gaps DEL101-115 partner)": "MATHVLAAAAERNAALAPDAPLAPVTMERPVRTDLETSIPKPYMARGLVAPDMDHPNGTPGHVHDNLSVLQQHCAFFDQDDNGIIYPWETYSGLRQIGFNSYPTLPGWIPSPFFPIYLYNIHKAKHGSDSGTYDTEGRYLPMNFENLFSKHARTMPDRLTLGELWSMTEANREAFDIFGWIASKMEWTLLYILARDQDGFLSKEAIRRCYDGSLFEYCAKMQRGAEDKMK", "test": "flotation of aggregated artificial oil bodies (emulsion layer thickness), light microscopy", "format": "binding", "conditions": "equal volumes oil bodies and 2 mM catechin; 100 mM potassium phosphate, 50 mM KCl, pH 7.0; normalised to ECG; indirect, no caleosin-only control", "values": [{"smiles": "Oc1cc(O)c2c(c1)O[C@H](c1ccc(O)c(O)c1)[C@@H](O)C2", "note": "[C, (+)-catechin]", "relative astringency (%)": "aggregation of artificial oil bodies interacting with each catechin was examined"}, {"smiles": "O=C(O[C@@H]1Cc2c(O)cc(O)cc2O[C@H]1c1ccc(O)c(O)c1)c1cc(O)c(O)c(O)c1", "note": "[CG, (−)-catechin gallate]", "relative astringency (%)": "aggregation of artificial oil bodies interacting with each catechin was examined"}, {"smiles": "Oc1cc(O)c2c(c1)O[C@H](c1ccc(O)c(O)c1)[C@H](O)C2", "note": "[EC, (−)-epicatechin]", "relative astringency (%)": "aggregation of artificial oil bodies interacting with each catechin was examined"}, {"smiles": "Oc1cc(O)c2c(c1)O[C@H](c1cc(O)c(O)c(O)c1)[C@H](O)C2", "note": "[EGC, (−)-epigallocatechin]", "relative astringency (%)": "aggregation of artificial oil bodies interacting with each catechin was examined"}, {"smiles": "O=C(O[C@@H]1Cc2c(O)cc(O)cc2O[C@@H]1c1cc(O)c(O)c(O)c1)c1cc(O)c(O)c(O)c1", "note": "[EGCG, (−)-epigallocatechin gallate]", "relative astringency (%)": "aggregation of artificial oil bodies interacting with each catechin was examined"}, {"smiles": "Oc1cc(O)c2c(c1)O[C@@H](c1cc(O)c(O)c(O)c1)[C@H](O)C2", "note": "[GC, (−)-gallocatechin]", "relative astringency (%)": "aggregation of artificial oil bodies interacting with each catechin was examined"}, {"smiles": "O=C(O[C@@H]1Cc2c(O)cc(O)cc2O[C@H]1c1cc(O)c(O)c(O)c1)c1cc(O)c(O)c(O)c1", "note": "[GCG, (−)-gallocatechin gallate]", "relative astringency (%)": "aggregation of artificial oil bodies interacting with each catechin was examined"}]}, {"target": "T1, caleosin–histatin 3 fusion protein", "test": "atomic force and scanning electron microscopy of artificial oil bodies", "format": "binding", "conditions": "5 mM rutin; oil bodies in distilled water, dried on silicon wafer; oil bodies alone set as 100%; indirect, no caleosin-only control", "values": [{"smiles": "C[C@@H]1O[C@@H](OC[C@H]2O[C@@H](Oc3c(-c4ccc(O)c(O)c4)oc4cc(O)cc(O)c4c3=O)[C@H](O)[C@@H](O)[C@@H]2O)[C@H](O)[C@H](O)[C@H]1O", "note": "[rutin]", "relative surface roughness (%)": "a smooth surface was observed on artificial oil bodies complexed with rutin"}]}]}
